Measured values from paper PMC6254723, “Synthesis and Pharmacological Screening of Several Aroyl and Heteroaroyl Selenylacetic Acid Derivatives as Cytotoxic and Antiproliferative Agents” (Molecules, 2009).
Entries after “also recorded” stand apart in the source; their conditions may differ. Where two headings read alike, the source gives them in different places.

Legend:
[1] = system: PC-3 cell line; experiment: MTT cytotoxicity assay in PC-3; details: Homo sapiens
Experimental: The results are tabulated as IC50 values. All experiments were independently performed at least three times and the values were calculated after 72 hours exposure (drug concentrations of 2, 5, 7 and 10 μM).
PC-3 cells were seeded in 96-well plates (Millipore, Eschborn, Germany) at a density of 5 × 10^3 cells per well. The samples were incubated at 37 °C under 5% CO2 overnight prior to the addition of the compounds. Compounds were diluted in complete medium. After 3 days of incubation, 10 μL MTT solution (5 mg/mL in PBS) was added to the cells in each well and these were stored for an additional 4 h at 37 °C. […] The percentage of viable cells was calculated to obtain IC50-values.
PC-3 are human tumorigenic and metastatic prostate cancer cells and these were obtained from American Type Culture Collection (ATCC, Manassas, VA, USA) (passage 36).

[2] = system: CCRF-CEM; experiment: MTT cytotoxicity assay (NCI) in CCRF-CEM; format: cell-based, human; details: 72 h
Experimental: (§1) In order to investigate the effect of the active compounds in more detail, we examined the activity on proliferation in other cancer cell lines. […] Tests were carried out in the Department of Health Science, Public University of Navarra against a panel of four human tumour cell lines: lung (HTB-54), colon (HT-29), leukaemia (CCRF-CEM) and breast adenocarcinoma (MCF-7). Cytotoxicity assays were performed based on the reactivity of MTT [3-(4,5-dimethylthiazol-2-yl)-2,5-diphenyl-tetrazolium bromide], as described by NCI [39]. […] Doxorubicin was used as a control. As guidance with regard to selectivity, all of the compounds were further examined for toxicity in a mammary gland cell culture derived from non-malignant cells (184B5). Drug concentrations ranged from 0.01 to 100 μM.
(§2) The cytotoxic effects of each substance were tested at five different doses between 0.01 and 100 μM. Each substance was initially dissolved in DMSO at a concentration of 0.1 M, and serial dilutions were prepared using culture medium. The plates with cells from the different lines, to which medium containing the substance under test were added, were incubated for 72 h at 37 °C in a humidified atmosphere containing 5% CO2. European Collection of Cell Cultures (ECACC) or American Type Culture Collection (ATCC) provided human tumour cell lines. Four cell lines were used: one human lymphocytic leukemia (CCRF-CEM) and three human solid tumours, one colon carcinoma (HT-29), one lung carcinoma (HTB-54) and one breast adenocarcinoma (MCF-7). CCRF-CEM, HT-29 and HTB-54 cells were grown in RPMI 1640 medium (Life Technologies, Carlsbad, CA, USA) supplemented with 10% foetal calf serum, 2 mM L-glutamine, 100 units/mL penicillin, 100 μg/mL streptomycin and 10 mM HEPES buffer (pH = 7.4). MCF-7 cells were grown in EMEM medium (Clonetics) supplemented with 10% foetal calf serum, 2 mM L-glutamine, 100 units/mL penicillin and 100 μg/mL streptomycin. 184B5 cells were grown Hams F-12/DMEM (50:50) supplemented as described by Li et al.. Cytotoxicity was then determined by the MTT method. […] Data were obtained from at least three independent experiments performed in quadruplicate.

[3] = system: HTB-54; experiment: MTT cytotoxicity assay (NCI) in HTB-54; format: cell-based, human
Experimental: as §1, §2

[4] = system: HT-29; experiment: MTT cytotoxicity assay (NCI) in HT-29; format: cell-based, human
Experimental: as §1, §2

[5] = system: MCF-7; experiment: MTT cytotoxicity assay (NCI) in MCF-7; format: cell-based, human
Experimental: as §1, §2

[6] = MTT toxicity assay in non-malignant mammary gland cells 184B5; format: cell-based; details: human; 72 h, non-malignant cells, dose that inhibits 50% of cell growth; read-out: GI50 184B5
Experimental: as §1, §2

[7] = system: 184B5; experiment: as above; format: cell-based
Experimental: as §1, §2

[8] = system: MCF-7 cells; experiment: Apoptosis, Apo-Direct kit (TUNEL); format: cell-based, human; details: MCF-7, 25 μM, 48 hours
Experimental: The apoptotic status of the cells after 48 hours of treatment with 25 μM of the corresponding compound was determined using the Apo-Direct kit (BD Pharmingen) based on the TUNEL technique. Camptothecin was used as a positive control.
(§3) For breast adenocarcinoma MCF-7 cells, the apoptotic status and cell cycle analysis of the cells were determined using the Apo-Direct kit (BD Pharmingen), based on the TUNEL technique, under the conditions described by the manufacturer.

[9] = system: MCF-7 cells; experiment: Cell cycle progression by flow cytometry; format: cell-based, human; details: MCF-7, 25 μM, 48 hours
Experimental: Cell cycle arrest is one of the targets of many anticancer drugs, including doxorubicin and camptothecin. In an effort to ascertain whether compound 1 could affect cell cycle progression in MCF-7 cells, these cells were treated with 25 μM of the corresponding compound for 48 hours and cell cycle progression was determined by flow cytometry analysis.
as §3

[10] = system: PC-3 cell line; details: cited from earlier work
[11] = system: MCF-7; details: comparison drugs, MCF-7 by context; no reference given; cited from earlier work
[12] = 72 h, dose that completely inhibits cell growth
[13] = 72 h, dose that kills 50% of cells
[14] = listed as benzoylselenylacetic acid

With `O=C(O)C[Se]C(=O)c1ccccc1` [Compound 1, (Benzoylselenyl)acetic acid] the IC50 ([1]; PC-3, 72 h, read-out: IC50 PC-3 cell line) was 6.8 µM, the IC50 ([1]; PC-3, read-out: IC50 (cytotoxic activity in PC-3 cell line)) was 6.8 µM and the “TGI CCRF-CEM” value ([2]; dose that completely inhibits cell growth) was over 100 µM. For the same molecule, the “LD50 CCRF-CEM” value ([2]; dose that kills 50% of cells) was over 100 µM, the GI50 ([2]; Homo sapiens, CCRF-CEM, read-out: GI50 CCRF-CEM) was over 100 µM and the “TGI HTB-54” value [3, 12] was 42.47 µM. For the same molecule, the “LD50 HTB-54” value [3, 13] was over 100 µM, the GI50 ([3]; Homo sapiens, HTB-54, 72 h, read-out: GI50 HTB-54) was 0.58 µM and the “TGI HT-29” value [4, 12] was 55.98 µM. The “LD50 HT-29” value [4, 13] was over 100 µM, the GI50 ([4]; Homo sapiens, HT-29, 72 h, read-out: GI50 HT-29) was 7.39 µM and the “TGI MCF-7” value [5, 12] was 3.69 µM. The “LD50 MCF-7” value [5, 13] was 58.01 µM, the GI50 ([5]; Homo sapiens, MCF7, 72 h, read-out: GI50 MCF-7) was 0.09 µM and the GI50 at 72 h [6] was 1.97 µM. The “TGI 184B5” value ([7]; 72 h, non-malignant cells, dose that completely inhibits cell growth) was 22.50 µM, the “LD50 184B5” value ([7]; 72 h, non-malignant cells, dose that kills 50% of cells) was 76.73 µM and the “selectivity index (184B5/MCF-7 LD50 ratio)” value ([7]; LD50 in 184B5 divided by LD50 in MCF-7) was 1.3. The induction of apoptosis [8] was “induction of cell death was independent of the apoptotic process; also recorded: mechanism of action is independent of apoptosis”, the induction of apoptosis [8, 14] was “did not provoke apoptosis” and the “effect on cell cycle progression” value [9] was “did not induce any specific phase arrest of the cell cycle”. The “effect on cell cycle progression” value [9, 14] was “nor did it perturb the cell cycle”.
In the case of `COc1cc([C@@H]2c3cc4c(cc3[C@@H](O[C@@H]3O[C@@H]5CO[C@@H](C)O[C@H]5[C@H](O)[C@H]3O)[C@H]3COC(=O)[C@H]23)OCO4)cc(OC)c1O` [Etoposide], the IC50 ([10]; etoposide control) is listed as 13.6 ± 2.2 µM.
In the case of `C[Se](=O)O` [MSA, methylseleninic acid], the IC50 ([10]; methylseleninic acid control) is given as 8.38 µM.
In the case of `CCC1=C[C@@H]2CN(C1)Cc1c([nH]c3ccccc13)[C@@](C(=O)OC)(c1cc3c(cc1OC)N(C)[C@H]1[C@@](O)(C(=O)OC)[C@H](OC(C)=O)[C@]4(CC)C=CCN5CC[C@]31[C@@H]54)C2` [vinorelbine], the GI50 [11] is listed as 5 ± 1.3 µM and the TGI [11] is listed as 100 ± 10.2 µM.
